Data as given in patent US20200377561A1, “ANTIMICROBIAL PEPTIDES AND METHODS OF TREATING GRAM-NEGATIVE PATHOGEN INFECTIONS: POLAR AND NON-POLAR FACE ANALOGS” (THE REGENTS OF THE UNIVERSITY OF COLORADO, a body corporate, priority 2017, published 2020).
Peptide text beside a SMILES is read from it.

Legend:
[1] = tested on: Pseudomonas aeruginosa ATCC 27853; format: cell-based; details: ATCC 27853
Method: (§1) Bacterial strains were acquired from the American Type Culture Collection (ATCC, Virginia, USA) and the National Collection of Type Cultures (NCTC, Public Health England, Salisbury, UK). Minimum Inhibitory Concentration (MIC) of peptides versus gram-negative strains-Acinetobacter baumannii NCTC 13420, and Pseudomonas aeruginosa ATCC 27853 and gram-positive strain Staphylococcus aureus ATCC 29213, were determined by broth microdilution as per the guidelines of the Clinical and Laboratory Standards Institute (“Methods for Dilution Antimicrobial Susceptibility Tests for Bacteria That Grow Aerobically”; Approved Standard-Ninth Edition. CLSI document M07-A9, 2012). Peptides were dissolved in sterile distilled water, which was also used as the drug-free vehicle control when determining peptide MICs. Prior to use in the MIC protocol, bacterial strains were grown on Mueller Hinton agar at 37° C. in an ambient atmosphere. […] A fixed inoculum of the test microorganism (5×10^5 cells/mL) is also added to the plate. The MIC is determined as the lowest concentration of compound that inhibits visible bacterial growth following incubation at 37° C. for 16-20 hours. A difference in MIC of two-fold between experimental replicates is considered to be within the normal variability of this protocol.

[2] = tested on: Acinetobacter baumannii NCTC 13420; format: cell-based; details: NCTC 13420
Method: as §1

Human erythrocytes = assay: Haemolysis assay using human blood; format: cell-based; details: red cells of human, 1 h
Method: To determine the extent of haemolytic activity (the ability to lyse red blood cells) in test peptides, a haemolysis assay was conducted using human blood (BioIVT, West Sussex, UK). Human erythrocytes were exposed to a single fixed concentration or a range of concentrations as to determine the % haemolysis (fixed concentration) or the concentration at which 50% haemolysis occurred (HC50), respectively. Prior to the assay, whole human blood was repeatedly washed in phosphate buffered saline (PBS) under cooled conditions to remove the buffy coat, plasma and cell debris. Washed erythrocytes were diluted as to achieve 1×10^8 cells/mL in PBS. Prepared human erythrocyte samples were combined with peptide at a single fixed concentration of 128 μg/mL, or a range of concentrations (two-fold dilution series) from 1000-31.25 μg/mL. Positive and negative controls containing 2% (v/v) Triton X-100 and PBS alone, respectively, were also prepared. Samples were incubated at 37° C. for 1 hour and then centrifuged to collect intact erythrocytes. Haemoglobin release was determined by recording the optical density of the supernatant at 540 nm. Optical density values were transformed to a percentage of the positive control. Results were recorded as a percentage haemolysis at 128 μg/mL, or by plotting the percentage haemolysis versus concentration and extrapolating the HC50 using linear regression analysis (Table 2 above)
The therapeutic index is a widely-accepted parameter to represent the specificity of antimicrobial peptides for prokaryotic versus eukaryotic cells. It is calculated by the ratio of hemolytic activity and antimicrobial activity (MIC) (Table 2 above); thus, larger values of therapeutic index indicate greater specificity for prokaryotic cells. With the peptides used in this study the inventors used the HC50/MIC ratio value to calculate the therapeutic index.

[3] = Peptide hydrophobicity by RP-HPLC retention; format: physicochemical; details: for tR (relative hydrophobicity by RP-HPLC): Zorbax SB-300 C8, 0.25% B/min from 10% B, 0.3 ml/min, 30° C.
Source text: Retention behavior in RP-HPLC is an excellent method to represent overall peptide hydrophobicity. Retention times of peptides are highly sensitive to the conformational status of the peptides upon interaction with the hydrophobic environment of the column matrix^17,26. The non-polar faces of amphipathic alpha-helical and amphipathic cyclic beta-sheet peptides represent a preferred binding domain for interaction with the hydrophobic matrix of the reversed-phase column^27. In this study, the observed peptide hydrophobicity was determined by RP-HPLC retention time as described below and are relative hydrophobicities because they are dependent on the TFA concentration and organic solvent in the mobile phase, gradient rate, temperature, flow rate and the column used. Analytical Purification by Reversed-phase Chromatography: Analytical RP-HPLC: Column: Zorbax SB-300 C8 (150×2.1 mm ID; 5-μm particle size; 300 Å pore size). Conditions: linear AB gradient (0.25% B/min from 10% B) at a flow-rate of 0.3 ml/min, where Eluent A is 0.2% aq. TFA and Eluent B is 0.18% TFA in acetonitrile; 30° C.

Row | SMILES | P. aeruginosa ATCC27853 MIC [1] [µg/mL] | Antimicrobial Activity MIC A. baumannii NCTC13420 [2] [µg/mL] | tR (relative hydrophobicity by RP-HPLC) [3] [min] | ΔtR (Lys) ([3]; retention time difference to the Lys13/Lys16 parent peptide) [min] | Haemolysis HC50 (Human erythrocytes) [µg/mL]
1 | CC(=O)N[C@H](CCCCN)C(=O)N[C@H](CC(C)C)C(=O)N[C@H](CO)C(=O)N[C@H](CO)C(=O)N[C@H](CC(C)C)C(=O)N[C@H](CC(C)C)C(=O)N[C@H](CO)C(=O)N[C@H](CCCCN)C(=O)N[C@H](CC(C)C)C(=O)N[C@H](CCCCN)C(=O)N[C@H](CCCCN)C(=O)N[C@H](C)C(=O)N[C@H](CCCCN)C(=O)N[C@H](CCCCN)C(=O)N[C@H](CCCCN)C(=O)N[C@H](CCCCN)C(=O)N[C@H](CC(C)C)C(=O)N[C@H](CCCCN)C(=O)N[C@H](CCCCN)C(=O)N[C@H](CC(C)C)C(=O)N[C@H](CC(C)C)C(=O)N[C@H](CCCCN)C(=O)N[C@H](C)C(=O)N[C@H](CC(C)C)C(=O)N[C@H](CO)C(=O)N[C@H](CO)C(N)=O [compound 5] (HELM PEPTIDE1{[ac].[dK].[dL].[dS].[dS].[dL].[dL].[dS].[dK].[dL].[dK].[dK].[dA].[dK].[dK].[dK].[dK].[dL].[dK].[dK].[dL].[dL].[dK].[dA].[dL].[dS].[dS].[am]}$$$$V2.0) | 2 | 1 | – | – | 669
2 | CC(=O)N[C@H](CCCCN)C(=O)N[C@H](CC(C)C)C(=O)N[C@H](CCCCN)C(=O)N[C@H](CCCCN)C(=O)N[C@H](CC(C)C)C(=O)N[C@H](CC(C)C)C(=O)N[C@H](CCCCN)C(=O)N[C@H](CCCCN)C(=O)N[C@H](CC(C)C)C(=O)N[C@H](CO)C(=O)N[C@H](CO)C(=O)N[C@H](C)C(=O)N[C@H](CCCN)C(=O)N[C@H](CO)C(=O)N[C@H](CO)C(=O)N[C@H](CCCN)C(=O)N[C@H](CC(C)C)C(=O)N[C@H](CO)C(=O)N[C@@H](C(=O)N[C@H](CC(C)C)C(=O)N[C@H](CC(C)C)C(=O)N[C@H](CCCCN)C(=O)N[C@H](CCCCN)C(=O)N[C@H](CC(C)C)C(=O)N[C@H](CCCCN)C(=O)N[C@H](CCCCN)C(N)=O)[C@H](C)O [compound 14] (HELM PEPTIDE1{[ac].[dK].[dL].[dK].[dK].[dL].[dL].[dK].[dK].[dL].[dS].[dS].[dA].[NCCC[C@@H](N[*:1])C(=O)[*:2]].[dS].[dS].[NCCC[C@@H](N[*:1])C(=O)[*:2]].[dL].[dS].[dT].[dL].[dL].[dK].[dK].[dL].[dK].[dK].[am]}$$$$V2.0) | 4 | 2 | 83.40 | 3.97 | >1000
3 | CC(=O)N[C@H](C)C(=O)N[C@H](CC(C)C)C(=O)N[C@H](CCCCN)C(=O)N[C@H](CO)C(=O)N[C@H](CC(C)C)C(=O)N[C@H](CC(C)C)C(=O)N[C@H](CCCCN)C(=O)N[C@H](CCCCN)C(=O)N[C@H](CC(C)C)C(=O)N[C@H](CO)C(=O)N[C@H](CCCCN)C(=O)N[C@H](C)C(=O)N[C@H](CCCCN)C(=O)N[C@H](CCCCN)C(=O)N[C@H](CCCCN)C(=O)N[C@H](CCCCN)C(=O)N[C@H](CC(C)C)C(=O)N[C@H](CCCCN)C(=O)N[C@H](CCCCN)C(=O)N[C@H](CC(C)C)C(=O)N[C@H](CC(C)C)C(=O)N[C@H](CCCCN)C(=O)N[C@H](C)C(=O)N[C@H](CC(C)C)C(=O)N[C@H](CO)C(=O)N[C@H](CO)C(N)=O [compound 23] (HELM PEPTIDE1{[ac].[dA].[dL].[dK].[dS].[dL].[dL].[dK].[dK].[dL].[dS].[dK].[dA].[dK].[dK].[dK].[dK].[dL].[dK].[dK].[dL].[dL].[dK].[dA].[dL].[dS].[dS].[am]}$$$$V2.0) | 2 | 2 | – | – | 175
4 | CC(=O)N[C@H](CCCCN)C(=O)N[C@H](CC(C)C)C(=O)N[C@H](CCCCN)C(=O)N[C@H](CO)C(=O)N[C@H](CC(C)C)C(=O)N[C@H](CC(C)C)C(=O)N[C@H](CCCCN)C(=O)N[C@H](CO)C(=O)N[C@H](CC(C)C)C(=O)N[C@H](CO)C(=O)N[C@H](CCCCN)C(=O)N[C@H](C)C(=O)N[C@H](CCCCN)C(=O)N[C@H](CCCCN)C(=O)N[C@H](CCCCN)C(=O)N[C@H](CCCCN)C(=O)N[C@H](CC(C)C)C(=O)N[C@H](CCCCN)C(=O)N[C@H](CO)C(=O)N[C@H](CC(C)C)C(=O)N[C@H](CC(C)C)C(=O)N[C@H](CCCCN)C(=O)N[C@H](C)C(=O)N[C@H](CC(C)C)C(=O)N[C@H](CO)C(=O)N[C@H](CCCCN)C(N)=O [compound 26] (HELM PEPTIDE1{[ac].[dK].[dL].[dK].[dS].[dL].[dL].[dK].[dS].[dL].[dS].[dK].[dA].[dK].[dK].[dK].[dK].[dL].[dK].[dS].[dL].[dL].[dK].[dA].[dL].[dS].[dK].[am]}$$$$V2.0) | 2 | 1 | – | – | >1000

Further lines, with some results ahead:

Row | P. aeruginosa ATCC27853 MIC [1] [µg/mL] | Antimicrobial Activity MIC A. baumannii NCTC13420 [2] [µg/mL] | tR (relative hydrophobicity by RP-HPLC) [3] [min] | ΔtR (Lys) ([3]; retention time difference to the Lys13/Lys16 parent peptide) [min] | SMILES | Haemolysis HC50 (Human erythrocytes) [µg/mL]
5 | 4 | 2 | 94.51 | – | CC(=O)N[C@H](C)C(=O)N[C@H](CC(C)C)C(=O)N[C@H](CCCCN)C(=O)N[C@H](CCCCN)C(=O)N[C@H](CC(C)C)C(=O)N[C@H](CC(C)C)C(=O)N[C@H](CCCCN)C(=O)N[C@H](CCCCN)C(=O)N[C@H](CC(C)C)C(=O)N[C@H](CO)C(=O)N[C@H](CO)C(=O)N[C@H](C)C(=O)N[C@H](CCCCN)C(=O)N[C@H](CO)C(=O)N[C@H](CO)C(=O)N[C@H](CCCCN)C(=O)N[C@H](CC(C)C)C(=O)N[C@H](CO)C(=O)N[C@@H](C(=O)N[C@H](CC(C)C)C(=O)N[C@H](CC(C)C)C(=O)N[C@H](CCCCN)C(=O)N[C@H](CCCCN)C(=O)N[C@H](CC(C)C)C(=O)N[C@H](CCCCN)C(=O)N[C@H](CCCCN)C(N)=O)[C@H](C)O [compound 8] (HELM PEPTIDE1{[ac].[dA].[dL].[dK].[dK].[dL].[dL].[dK].[dK].[dL].[dS].[dS].[dA].[dK].[dS].[dS].[dK].[dL].[dS].[dT].[dL].[dL].[dK].[dK].[dL].[dK].[dK].[am]}$$$$V2.0) | >1000
6 | 2 | 2 | – | – | CC(=O)N[C@H](C)C(=O)N[C@H](CC(C)C)C(=O)N[C@H](CO)C(=O)N[C@H](CO)C(=O)N[C@H](CC(C)C)C(=O)N[C@H](CC(C)C)C(=O)N[C@H](CO)C(=O)N[C@H](CCCCN)C(=O)N[C@H](CC(C)C)C(=O)N[C@H](CCCCN)C(=O)N[C@H](CCCCN)C(=O)N[C@H](C)C(=O)N[C@H](CCCCN)C(=O)N[C@H](CCCCN)C(=O)N[C@H](CCCCN)C(=O)N[C@H](CCCCN)C(=O)N[C@H](CC(C)C)C(=O)N[C@H](CCCCN)C(=O)N[C@H](CCCCN)C(=O)N[C@H](CC(C)C)C(=O)N[C@H](CC(C)C)C(=O)N[C@H](CCCCN)C(=O)N[C@H](C)C(=O)N[C@H](CC(C)C)C(=O)N[C@H](CO)C(=O)N[C@H](CO)C(N)=O [compound 10] (HELM PEPTIDE1{[ac].[dA].[dL].[dS].[dS].[dL].[dL].[dS].[dK].[dL].[dK].[dK].[dA].[dK].[dK].[dK].[dK].[dL].[dK].[dK].[dL].[dL].[dK].[dA].[dL].[dS].[dS].[am]}$$$$V2.0) | >1000
